Test results reported in patent US20110098296A1, “Thiazole And Oxazole Kinase Inhibitors” (priority 2007, published 2011).
Where a name gives a salt, the structure may show the parent alone.

Key:
SK-MEL-28 tumor cells = assay: Method C: Cell Growth Inhibition Assay (CellTiter-Glo), SK-MEL-28; type: cell-based; conditions: Homo sapiens, SK-MEL-28, 72 h, 3 days, 4-parameter fit
Experimental: (§1) Human breast tumor cells (BT474) were cultured in RPMI (Mediatech 50-011-PB), containing 10% FBS (JRH Biosciences 12176) and 1% penicillin-streptomycin (Invitrogen 15140). Human head and neck tumor cells (HN5) were cultured in high glucose DMEM (Mediatech 50-013-PB) containing 10% FBS and 1% penicillin-streptomycin. Human colon tumor cells (Colo205) were cultured in RPMI (Mediatech 50-020-PB) containing 10% FBS and 1% penicillin-streptomycin. Human melanoma cancer cells (SK-MEL-28) were cultured in EMEM with nonessential amino acids (Mediatech 50-011-PB) containing 10% FBS, 1% sodium pyruvate (JT Baker 3354-04), and 1% penicillin-streptomycin. Human melanoma cancer cells (A375P F11s) were cultured in RPMI (Mediatech 50-020-PB) containing 10% FBS, 1% sodium pyruvate, and 1% penicillin-streptomycin. Human colon cancer cells (HT-29) were cultured in high glucose DMEM (Mediatech 50-013-PB) containing 10% FBS and 1% penicillin-streptomycin. Human melanoma cancer cells (SK-MEL-3) were cultured in McCoy's 5A (50-025-PB) containing 15% FBS, and 1% penicillin-streptomycin. All cell lines were maintained at 37° C. in a humidified 5% CO2, 95% air incubator. Cells were harvested using trypsin/EDTA (Invitrogen 25200), counted using an haemocytometer, and plated. For 96-well assays (using white full-area NUNC plates cat. #136102), cells were plated in 105 μL at the following densities (cells/well): HN5, 500; Colo205, 500; SK-MEL-28, 500; A375P-F11s, 500; HT-29, 500; SK-MEL-3, 500; and BT474, 3000. For 384-well assays (white full-area NUNC plates, cat. #781080), cells were plated in 48 μL at the following densities (cells/well): HN5, 500; Colo205, 500; SK-MEL-28, 500; A375P-F11s, 500; HT29, 500; SK-MEL-3, 500; and BT474, 2000.
(§2) The next day, compounds were diluted as follow: For 96-well assays, 13.5 μL of compound in DMSO were diluted using nine (9) serial 1:3 dilutions of 4.5 μL in 9 μL of DMSO. Medium (270 μl/well of RPMI with 10% FBS and 1% penicillin-streptomycin) was added to the plates. Aliquots (7 μl) were added to cells in the final assay giving a final DMSO concentration of 0.2%. For 384-well assays, 15 μL of compound in DMSO were diluted using nine (9) serial 1:3 dilutions of 5 μL in 10 μL of DMSO, followed by a further dilution of 5 μL of compound with 95 μL of medium, of which 2 μL were added to cells in the final assay giving a final DMSO concentration of 0.2%. Cells were incubated at 37° C., 5% CO2 for 3 days.
(§3) Total ATP was measured (as a surrogate estimate of cell number) using CellTiter-Glo® reagent (Promega G7571). Briefly, plates were removed from the incubator and allowed to equilibrate to room temperature for 30 minutes. CellTiter-Glo® (25 μL or 55 μL for 384-well or 96-well assays, respectively) reagent was added to each well and plates were shaken on an orbital plate shaker for 2 mins. Plates were incubated without shaking for a further 30 mins and read on an LJL Analyst GT reader in luminometer mode with an integration time of 0.5 seconds per well. Percent inhibition of cell growth was calculated relative to DMSO vehicle-treated control wells. Concentration of compound required to give 50% inhibition of vehicle-treated control cell growth (IC50) was interpolated using a 4-parameter fit for determining IC50 using the following equation: Y=A+((B−A)/(1+((C/X)̂D))) where X=IC50.

EGFR = target: T1, EGFR (Homo sapiens, UniProt P00533); assay: EGFR substrate phosphorylation assay (HTRF); type: biochemical; conditions: Method (A): Enzyme Mix incubated with compound at 20° C. for 1 hr, reaction started by adding Substrate Mix
T1 construct: made in house; host or cells: baculovirus expression system
Experimental: (§4) Compounds of the present invention were tested for EGFR and ErbB-2 protein tyrosine kinase inhibitory activity in substrate phosphorylation assays using enzymes purified from a baculovirus expression system. Reagent production was conducted essentially as described in Brignola, P. S., et al., (2002) J. Biol. Chem. 277(2):1576-1585.
(§5) The method measures the ability of the isolated enzyme to catalyse the transfer of the gamma-phosphate from ATP onto the tyrosine residue of a biotinylated synthetic peptide referenced “Peptide C” in Brignola, P. S., et al., (2002) J. Biol. Chem. 277(2):1576-1585. The extent of tyrosine phosphorylation was measured using an anti-phosphotyrosine antibody, and quantified by homogenous time-resolved fluorescence (HTRF).
(§6) Reactions were performed in black 384-well polystyrene flat-bottom plates in a final volume of 20 μl. Assays were performed by adding 10 μl of each of the following solutions, Substrate Mix and Enzyme Mix: The Substrate Mix contained 100 mM 3-[N-morpholino]propanesulfonic acid (MOPS) (pH 7.5), 2 mM MnCl2, 20 μM ATP, 0.01% Tween-20, 0.1 mg/mL (BSA), 0.8 uM peptide substrate, and 1 mM dithiothreitol. The Enzyme Mix contained 100 mM MOPS (pH 7.5); 0.01% Tween-20; 0.1 mg/mL BSA, and either 0.8 nM EGFR, 10 nM ErbB2, or 1 nM ErbB4
(§7) During the course of these studies, two separate methods have been used to measure the potency of compounds. In Method A (indicated as “(A)” in the tables below), the Enzyme Mix was added to the compound plates and the plates were incubated at 20° C. for 1 hr. The reactions were then started by adding the Substrate Mix. In Method B (indicated as “(B)” in the tables below), the Substrate Mix was added to the compound plates first, then the reaction was started by adding the Enzyme Mix.
(§8) After initiating the reaction with either method describe above, the reactions were allowed to proceed for 90 minutes at 20° C. The reactions were then terminated by the addition of 20 μL 100 mM EDTA to each well. 40 μL/well of HTRF detection mix were added to the assay plates. The final concentrations of the detection reagents were: 100 mM HEPES (pH7.5), 0.1 mg/mL BSA, 15 nM streptavidin-labeled allophycocyanin (PerkinElmer), and 1 nM europium-labeled anti-phosphotyrosine antibody (PerkinElmer). Assay plates were left unsealed and were counted in a Wallac Multilabel Counter 1420 (PerkinElmer).
(§9) Compounds under analysis were dissolved in dimethylsulfoxide (DMSO) to 1.0 mM and serially diluted 1 to 3 with DMSO through twelve dilutions. 1 μL of each concentration was transferred to the corresponding well of an assay plate. This creates a final compound concentration range from 0.00027 to 47.6 μM.
(§10) The data for dose responses were plotted as % Inhibition calculated with the data reduction formula 100*(1−(U1−C2)/(C1−C2)) versus concentration of compound where U1 is the unknown value, C1 is the average control value obtained for 4.76% DMSO, and C2 is the average control value obtained for 0.035 M EDTA. Data were fitted with a curve described by:
(§11) where Vmax is the upper asymptote, Y2 is the Y intercept, and K is the IC50. The results for each compound were recorded as pIC50s, calculated as follows: […]

ErbB2 = target: T2, ErbB2 (Homo sapiens, UniProt P04626); assay: ErbB-2 substrate phosphorylation assay (HTRF); type: biochemical; conditions: Method (A): Enzyme Mix incubated with compound at 20° C. for 1 hr, reaction started by adding Substrate Mix
T2 construct: made in house; host or cells: baculovirus expression system
Experimental: as §4, §5, §6, §7, §8, §9, §10, §11

Colo205 tumor cells = assay: Method C: Cell Growth Inhibition Assay (CellTiter-Glo), Colo205; type: cell-based; conditions: Homo sapiens, COLO 205, 72 h, 3 days, 4-parameter fit
Experimental: as §1, §2, §3

BT474 tumor cells = assay: Method C: Cell Growth Inhibition Assay (CellTiter-Glo), BT474; type: cell-based; conditions: Homo sapiens, BT-474, 72 h, 3 days, 4-parameter fit
Experimental: as §1, §2, §3

HN5 tumor cells = assay: Method C: Cell Growth Inhibition Assay (CellTiter-Glo), HN5; type: cell-based; conditions: Homo sapiens, 72 h, 3 days, 4-parameter fit
Experimental: as §1, §2, §3

T1 sequence (P00533 25-1210): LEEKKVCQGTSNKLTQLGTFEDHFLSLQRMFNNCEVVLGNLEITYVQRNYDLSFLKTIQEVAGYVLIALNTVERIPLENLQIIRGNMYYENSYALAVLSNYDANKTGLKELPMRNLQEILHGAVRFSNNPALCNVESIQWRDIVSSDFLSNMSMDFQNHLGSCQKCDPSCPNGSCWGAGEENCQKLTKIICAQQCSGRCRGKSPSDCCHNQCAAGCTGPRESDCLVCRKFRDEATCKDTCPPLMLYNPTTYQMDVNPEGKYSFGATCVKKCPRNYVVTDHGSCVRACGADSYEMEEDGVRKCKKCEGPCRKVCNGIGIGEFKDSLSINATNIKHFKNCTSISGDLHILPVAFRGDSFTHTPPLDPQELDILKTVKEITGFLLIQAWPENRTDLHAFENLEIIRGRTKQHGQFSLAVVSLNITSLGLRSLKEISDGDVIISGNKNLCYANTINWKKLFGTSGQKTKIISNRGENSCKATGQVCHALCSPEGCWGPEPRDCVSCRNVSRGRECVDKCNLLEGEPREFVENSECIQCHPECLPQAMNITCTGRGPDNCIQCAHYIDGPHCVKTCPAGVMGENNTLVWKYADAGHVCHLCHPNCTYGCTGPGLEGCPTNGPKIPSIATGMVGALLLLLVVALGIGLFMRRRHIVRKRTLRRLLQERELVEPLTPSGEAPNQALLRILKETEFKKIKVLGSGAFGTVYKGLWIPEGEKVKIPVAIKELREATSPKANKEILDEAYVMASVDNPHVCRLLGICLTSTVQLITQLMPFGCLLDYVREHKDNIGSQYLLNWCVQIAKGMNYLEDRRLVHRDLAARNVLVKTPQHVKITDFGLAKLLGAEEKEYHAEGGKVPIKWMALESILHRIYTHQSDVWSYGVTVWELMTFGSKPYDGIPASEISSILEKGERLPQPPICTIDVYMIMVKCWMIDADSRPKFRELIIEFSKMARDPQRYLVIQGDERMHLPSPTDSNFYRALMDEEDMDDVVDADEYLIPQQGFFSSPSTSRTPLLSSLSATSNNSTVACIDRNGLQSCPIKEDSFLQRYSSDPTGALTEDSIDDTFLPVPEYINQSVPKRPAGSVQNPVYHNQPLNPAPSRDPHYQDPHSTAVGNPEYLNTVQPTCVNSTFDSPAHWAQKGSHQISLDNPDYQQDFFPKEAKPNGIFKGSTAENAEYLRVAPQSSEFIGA
T2 sequence (P04626 23-1255): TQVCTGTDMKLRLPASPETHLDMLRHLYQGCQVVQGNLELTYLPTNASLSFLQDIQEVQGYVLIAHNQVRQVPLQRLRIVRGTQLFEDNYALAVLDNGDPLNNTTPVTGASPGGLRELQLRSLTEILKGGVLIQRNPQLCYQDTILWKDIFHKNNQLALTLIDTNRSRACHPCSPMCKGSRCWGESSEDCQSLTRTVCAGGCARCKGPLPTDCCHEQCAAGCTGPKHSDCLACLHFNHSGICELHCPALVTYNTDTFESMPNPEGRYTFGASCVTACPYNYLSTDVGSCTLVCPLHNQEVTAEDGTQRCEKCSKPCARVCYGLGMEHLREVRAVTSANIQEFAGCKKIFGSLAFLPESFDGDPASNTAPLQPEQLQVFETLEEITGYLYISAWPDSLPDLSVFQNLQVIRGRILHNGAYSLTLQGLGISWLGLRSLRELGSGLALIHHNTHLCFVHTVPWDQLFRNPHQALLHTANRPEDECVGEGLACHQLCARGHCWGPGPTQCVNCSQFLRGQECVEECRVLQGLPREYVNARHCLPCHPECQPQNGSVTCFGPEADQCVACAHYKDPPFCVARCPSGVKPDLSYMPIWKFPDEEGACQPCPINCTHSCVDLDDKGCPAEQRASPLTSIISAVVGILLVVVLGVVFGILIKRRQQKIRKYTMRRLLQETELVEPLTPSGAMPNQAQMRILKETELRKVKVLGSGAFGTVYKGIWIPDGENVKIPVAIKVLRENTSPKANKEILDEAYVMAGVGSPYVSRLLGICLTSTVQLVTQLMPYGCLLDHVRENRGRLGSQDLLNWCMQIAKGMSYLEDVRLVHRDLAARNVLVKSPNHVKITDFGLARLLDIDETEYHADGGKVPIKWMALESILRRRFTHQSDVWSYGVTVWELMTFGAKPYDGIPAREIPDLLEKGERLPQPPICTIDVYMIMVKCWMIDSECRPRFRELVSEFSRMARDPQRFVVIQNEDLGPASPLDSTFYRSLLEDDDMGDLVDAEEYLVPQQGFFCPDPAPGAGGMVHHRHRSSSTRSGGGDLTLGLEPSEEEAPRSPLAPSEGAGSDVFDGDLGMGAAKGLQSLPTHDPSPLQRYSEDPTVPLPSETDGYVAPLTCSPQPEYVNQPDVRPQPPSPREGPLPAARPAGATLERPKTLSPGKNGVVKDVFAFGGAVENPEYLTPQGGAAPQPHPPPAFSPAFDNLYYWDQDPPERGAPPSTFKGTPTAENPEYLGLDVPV

| IC50 (SK-MEL-28 tumor cells) | IC50 (EGFR) | IC50 (ErbB2) | IC50 (Colo205 tumor cells) | IC50 (BT474 tumor cells) | IC50 (HN5 tumor cells) | Compound |
| --- | --- | --- | --- | --- | --- | --- |
| > 1000 nM | < 100 nM | < 100 nM | 100 to 1000 nM | < 100 nM | < 100 nM | CN(C)CCOc1cccc(Nc2nccc(-c3sc(NCCCN4CCOCC4)nc3-c3cccc(NC(=O)c4c(F)cccc4F)c3)n2)c1 [Example 29, N-[3-(5-{2-[(3-{[2-(Dimethylamino)ethyl]oxy}phenyl)amino]-4-pyrimidinyl}-2-{[3-(4-morpholinyl)propyl]amino}-1,3-thiazol-4-yl)phenyl]-2,6-difluorobenzamide] |
|  | < 100 nM | < 100 nM | 100 to 1000 nM | < 100 nM | 100 to 1000 nM | CN(C)CCOc1cccc(Nc2nccc(-c3sc(N)nc3-c3cccc(C(=O)Nc4c(F)cccc4F)c3)n2)c1 [Example 76, 3-(2-Amino-5-{2-[(3-{[2-(dimethylamino)ethyl]oxy}phenyl)amino]-4-pyrimidinyl}-1,3-thiazol-4-yl)-N-(2,6-difluorophenyl)benzamide] |
| > 1000 nM | < 100 nM | < 100 nM | > 1000 nM | 100 to 1000 nM | < 100 nM | CN(C)CCOc1cccc(Nc2nccc(-c3scnc3-c3cccc(NC(=O)c4cc(F)ccc4F)c3)n2)c1 [Example 96, N-[3-(5-{2-[(3-{[2-(Dimethylamino)ethyl]oxy}phenyl)amino]-4-pyrimidinyl}-1,3-thiazol-4-yl)phenyl]-2,5-difluorobenzamide] |
| > 1000 nM | < 100 nM | < 100 nM | > 1000 nM | 100 to 1000 nM | 100 to 1000 nM | CCN(CC)CCOc1cccc(Nc2nccc(-c3scnc3-c3cccc(NC(=O)c4cc(F)ccc4F)c3)n2)c1 [Example 97, N-[3-(5-{2-[(3-{[2-(Diethylamino)ethyl]oxy}phenyl)amino]-4-pyrimidinyl}-1,3-thiazol-4-yl)phenyl]-2,5-difluorobenzamide] |
|  | < 100 nM | < 100 nM | 100 to 1000 nM | < 100 nM | < 100 nM | NS(=O)(=O)CCc1cccc(Nc2nccc(-c3scnc3-c3cccc(NC(=O)c4cc(F)ccc4F)c3)n2)c1 [Example 100, N-(3-{5-[2-({3-[2-(Aminosulfonyl)ethyl]phenyl}amino)-4-pyrimidinyl]-1,3-thiazol-4-yl}phenyl)-2,5-difluorobenzamide trifluoroacetate] |
|  | < 100 nM | < 100 nM | > 1000 nM | 100 to 1000 nM | 100 to 1000 nM | Cc1nc(-c2cccc(NC(=O)c3c(F)cccc3F)c2)c(-c2ccnc(Nc3cccc(OCCN(C)C)c3)n2)s1 [Example 102, N-[3-(5-{2-[(3-{[2-(Dimethylamino)ethyl]oxy}phenyl)amino]-4-pyrimidinyl}-2-methyl-1,3-thiazol-4-yl)phenyl]-2,6-difluorobenzamide] |
| > 1000 nM | < 100 nM | < 100 nM | > 1000 nM | 100 to 1000 nM |  | Cc1nc(-c2cccc(NC(=O)c3cccnc3F)c2)c(-c2ccnc(Nc3ccc4c(c3)CN(C)CC4)n2)s1 [Example 137, 2-Fluoro-N-[3-(2-methyl-5-{2-[(2-methyl-1,2,3,4-tetrahydro-7-isoquinolinyl)amino]-4-pyrimidinyl}-1,3-thiazol-4-yl)phenyl]-3-pyridinecarboxamide trifluoroacetate] |
|  | < 100 nM | < 100 nM | 100 to 1000 nM | 100 to 1000 nM | 100 to 1000 nM | CN(C)CCOc1ccc(Nc2nccc(-c3sc(-c4ccc(O)cc4)nc3-c3cccc(NC(=O)c4c(F)cccc4F)c3)n2)cc1Cl [Example 139, N-{3-[5-{2-[(3-Chloro-4-{[2-(dimethylamino)ethyl]oxy}phenyl)amino]-4-pyrimidinyl}-2-(4-hydroxyphenyl)-1,3-thiazol-4-yl]phenyl}-2,6-difluorobenzamide] |
| 100 to 1000 nM | < 100 nM | < 100 nM | 100 to 1000 nM | 100 to 1000 nM | 100 to 1000 nM | CN(C)CCOc1ccc(Nc2nccc(-c3sc(-c4ccc(O)cc4)nc3-c3cccc(NC(=O)c4cc(F)ccc4F)c3)n2)cc1Cl [Example 140, N-{3-[5-{2-[(3-Chloro-4-{[2-(dimethylamino)ethyl]oxy}phenyl)amino]-4-pyrimidinyl}-2-(4-hydroxyphenyl)-1,3-thiazol-4-yl]phenyl}-2,5-difluorobenzamide] |
